For assay [1], the system named is H1975. In words: H1975 CellTiter-Glo. In kind it is cell-based. The conditions noted are these: Homo sapiens, NCI-H1975; 72 h compound incubation; read-out: H1975 CTG IC50. In a few lines: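 In this viability format, compound-treated cells sit 72 h at 37° C. before ATP content is quantified by luminescence, and IC50 is taken from the fitted dose-response curve.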
For orientation: In ATP-based viability assays light output follows the ATP content of the culture.

The target of assay [2] is EGFR Exon 20 INSNPH Ba/F3 (Homo sapiens, UniProt P00533, DUP771-773, cells depend on it). In words: EGFR Exon 20 INSNPH Ba/F3 CellTiter-Glo. The class given is cell-based. The conditions noted are these: CellTiter-Glo, 72 h, read-out: EGFR Exon 20 INSNPH Ba/F3 CTG IC50. In a few lines: (§1)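 Ba/F3 cells dependent on the mutant kinase, seeded and grown 24 h, then treated with compound for 72 h at 37 °C, 5% CO2. Viability by CellTiter-Glo ATP luminescence versus DMSO and 10 μM staurosporine controls; IC50 from dose-response fit, plates accepted at Z′ ≥0.5; bins A ≤100 nM to E >10000 nM.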
Chain of EGFR Exon 20 INSNPH Ba/F3 (P00533 with tags, fused parts or gaps DUP771-773): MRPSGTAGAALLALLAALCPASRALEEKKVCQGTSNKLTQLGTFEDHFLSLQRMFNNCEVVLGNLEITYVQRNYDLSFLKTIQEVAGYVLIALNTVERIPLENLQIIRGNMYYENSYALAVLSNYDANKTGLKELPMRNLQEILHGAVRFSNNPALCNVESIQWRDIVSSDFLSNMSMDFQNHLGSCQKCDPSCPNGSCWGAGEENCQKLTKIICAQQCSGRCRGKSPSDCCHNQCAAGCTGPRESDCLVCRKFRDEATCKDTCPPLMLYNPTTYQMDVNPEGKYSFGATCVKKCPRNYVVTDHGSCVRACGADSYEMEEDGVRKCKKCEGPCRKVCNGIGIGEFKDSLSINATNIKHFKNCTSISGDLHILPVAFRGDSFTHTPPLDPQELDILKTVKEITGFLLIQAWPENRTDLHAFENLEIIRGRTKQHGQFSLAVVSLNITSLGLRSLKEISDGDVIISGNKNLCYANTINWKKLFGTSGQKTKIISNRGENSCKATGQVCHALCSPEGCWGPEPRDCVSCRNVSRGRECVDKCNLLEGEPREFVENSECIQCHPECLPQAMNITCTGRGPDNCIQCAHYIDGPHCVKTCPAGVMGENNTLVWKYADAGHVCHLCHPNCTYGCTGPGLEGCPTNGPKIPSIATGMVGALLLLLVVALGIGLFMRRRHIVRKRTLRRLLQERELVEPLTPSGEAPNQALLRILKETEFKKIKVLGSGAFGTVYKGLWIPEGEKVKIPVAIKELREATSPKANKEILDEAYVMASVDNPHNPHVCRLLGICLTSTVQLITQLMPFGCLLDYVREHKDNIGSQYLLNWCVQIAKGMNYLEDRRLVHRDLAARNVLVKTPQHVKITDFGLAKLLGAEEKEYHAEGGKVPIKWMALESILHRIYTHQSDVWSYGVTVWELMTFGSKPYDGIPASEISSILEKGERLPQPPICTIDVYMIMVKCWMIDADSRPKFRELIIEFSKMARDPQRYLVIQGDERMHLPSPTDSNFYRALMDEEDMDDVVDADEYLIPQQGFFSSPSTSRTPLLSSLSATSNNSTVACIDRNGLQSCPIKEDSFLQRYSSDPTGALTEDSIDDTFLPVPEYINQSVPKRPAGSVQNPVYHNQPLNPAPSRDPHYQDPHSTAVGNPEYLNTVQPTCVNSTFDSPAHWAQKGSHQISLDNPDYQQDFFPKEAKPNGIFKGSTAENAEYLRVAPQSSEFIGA

Assay [3] has as its system A431. In words: A431 CellTiter-Glo. The class given is cell-based. The conditions noted are these: Homo sapiens, A-431; 72 h compound incubation; read-out: A431 CTG IC50. On the procedure: 2. Measurement of Cellular Activity
The CellTiter-Glo Luminescent Cell Viability Assay (Promega) is a homogeneous method of determining the number of viable cells in culture. It is based on quantification of ATP, indicating the presence of metabolically active cells. Cells are seeded on day 1 at cell numbers that assure assay linearity and optimal signal intensity. After incubation for 24 h in humidified chambers at 37° C. and 5% CO2, compounds in DMSO are added at different concentrations. Cells are further incubated for 72 h at 37° C. and 5% CO2. Cells treated with the compound vehicle DMSO are used as positive controls and cells treated with 10 μM Staurosporine serve as negative controls. At day 5 the CellTiter Glo Reagent is prepared according to the instructions of the kit (Promega Inc.): Reagent is mixed 1:1 with cell culture medium. Thereon, mixture and assay plates are equilibrated at room temperature for 20 min. Equal volumes of the reagent-medium-mixture is added to the volume of culture medium present in each well. The plates are mixed at ˜200 rpm for 2 minutes on an orbital shaker. The microplates are then incubated at room temperature for 10 minutes for stabilization of the luminescent signal. Following incubation the luminescence is recorded on a Victor microplate reader (Perkin Elmer) using a 200 ms integration time. The data is then analyzed with Excel using the XLFIT Plugin (dose response Fit 205) for IC50-determination. As quality control the Z′-factor is calculated from 16 positive and negative control values. Only assay results showing a Z′-factor ≥0.5 are used for further analysis.
(§2) Inhibition is indicated as […] [nM] (“−”=not measured). Compounds having an activity designated as “A” provided an IC50≤100 nM; compounds having an activity designated as “B” provided an 100 nM<IC50≤500 nM; compounds having an activity designated as “C” provided an 500 nM<IC50≤1000 nM; compounds having an activity designated as “D” provided an 1000 nM<IC50≤100000 nM; and compounds having an activity designated as “E” provided an IC50>10000 nM.

In assay [4] the target is EGFR T790ML858R (Homo sapiens, UniProt P00533, L858R/T790M). In words: EGFR T790ML858R Lance assay. The class given is biochemical. How it is done:
as §2

In assay [5] the target is EGFR wt (Homo sapiens, UniProt P00533). In words: EGFR wt Lance assay. In kind it is biochemical. On the procedure:
as §2

Assay [6] deals with T1, HER2 INS YVMA (Homo sapiens, UniProt P04626, INS775YVMA).
T1 construct: purchased DPF
In words: Lance Kinase Activity Assay, HER2 INS YVMA (Her2 Exon 20 INSYVMA Lance). The class given is biochemical. Particulars: biochemical Lance assay. In a few lines:
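IC50 was fitted to sigmoidal curves of TR-FRET signal (665 and 615 nm emission after 340 nm excitation) from an Eu anti-phospho antibody binding the phosphorylated ULight peptide. The ATP-started reaction ran 1 h at RT and was then quenched with 10 mM EDTA plus antibody for a further 1 h. Compounds were tested as 8-point, 3-fold dilutions.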

For assay [7], the target named is Her2 Exon 20 INSYVMA Ba/F3 (Homo sapiens, UniProt P04626, DUP772-775, cells depend on it). In words: Her2 Exon 20 INSYVMA Ba/F3 CellTiter-Glo. In kind it is cell-based. Particulars: CellTiter-Glo, 72 h, read-out: Her2 Exon 20 INSYVMA Ba/F3 CTG IC50. In short, it runs like this:
as §1

pIC50: −log10 of the molar value.

Chain of Her2 Exon 20 INSYVMA Ba/F3 (P04626 with tags, fused parts or gaps DUP772-775): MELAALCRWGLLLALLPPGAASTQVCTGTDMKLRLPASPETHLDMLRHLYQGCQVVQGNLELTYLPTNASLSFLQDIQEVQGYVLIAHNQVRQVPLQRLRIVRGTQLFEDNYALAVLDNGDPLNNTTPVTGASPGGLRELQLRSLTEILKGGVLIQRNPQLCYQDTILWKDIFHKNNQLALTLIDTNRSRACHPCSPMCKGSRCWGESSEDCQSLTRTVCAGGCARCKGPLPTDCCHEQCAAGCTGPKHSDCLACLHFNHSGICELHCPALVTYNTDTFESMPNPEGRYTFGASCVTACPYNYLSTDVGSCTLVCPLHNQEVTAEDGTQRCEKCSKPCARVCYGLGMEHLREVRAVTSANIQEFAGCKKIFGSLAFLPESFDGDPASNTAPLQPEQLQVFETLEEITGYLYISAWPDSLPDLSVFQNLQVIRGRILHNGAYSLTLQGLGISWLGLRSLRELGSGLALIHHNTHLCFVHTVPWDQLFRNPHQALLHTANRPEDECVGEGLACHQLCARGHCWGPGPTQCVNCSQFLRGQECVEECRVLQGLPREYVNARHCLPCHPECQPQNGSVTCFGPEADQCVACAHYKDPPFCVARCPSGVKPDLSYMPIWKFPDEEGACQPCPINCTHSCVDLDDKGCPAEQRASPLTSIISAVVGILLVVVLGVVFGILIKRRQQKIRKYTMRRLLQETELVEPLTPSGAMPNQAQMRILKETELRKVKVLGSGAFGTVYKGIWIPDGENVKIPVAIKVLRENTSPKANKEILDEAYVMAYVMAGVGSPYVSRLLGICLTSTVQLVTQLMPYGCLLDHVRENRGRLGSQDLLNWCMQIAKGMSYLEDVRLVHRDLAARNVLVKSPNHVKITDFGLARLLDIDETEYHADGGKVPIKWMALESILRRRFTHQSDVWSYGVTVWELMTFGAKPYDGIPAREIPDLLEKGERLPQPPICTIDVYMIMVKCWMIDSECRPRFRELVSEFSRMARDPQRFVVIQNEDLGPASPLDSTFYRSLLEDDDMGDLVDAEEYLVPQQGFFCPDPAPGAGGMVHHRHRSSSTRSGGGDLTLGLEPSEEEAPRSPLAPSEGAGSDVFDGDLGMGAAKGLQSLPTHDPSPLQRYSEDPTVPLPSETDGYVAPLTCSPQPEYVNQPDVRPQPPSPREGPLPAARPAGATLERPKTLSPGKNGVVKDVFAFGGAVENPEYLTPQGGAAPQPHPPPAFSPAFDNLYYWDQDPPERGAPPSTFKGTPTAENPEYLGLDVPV
Chain of EGFR T790ML858R (P00533 25-1210 T790M/L858R): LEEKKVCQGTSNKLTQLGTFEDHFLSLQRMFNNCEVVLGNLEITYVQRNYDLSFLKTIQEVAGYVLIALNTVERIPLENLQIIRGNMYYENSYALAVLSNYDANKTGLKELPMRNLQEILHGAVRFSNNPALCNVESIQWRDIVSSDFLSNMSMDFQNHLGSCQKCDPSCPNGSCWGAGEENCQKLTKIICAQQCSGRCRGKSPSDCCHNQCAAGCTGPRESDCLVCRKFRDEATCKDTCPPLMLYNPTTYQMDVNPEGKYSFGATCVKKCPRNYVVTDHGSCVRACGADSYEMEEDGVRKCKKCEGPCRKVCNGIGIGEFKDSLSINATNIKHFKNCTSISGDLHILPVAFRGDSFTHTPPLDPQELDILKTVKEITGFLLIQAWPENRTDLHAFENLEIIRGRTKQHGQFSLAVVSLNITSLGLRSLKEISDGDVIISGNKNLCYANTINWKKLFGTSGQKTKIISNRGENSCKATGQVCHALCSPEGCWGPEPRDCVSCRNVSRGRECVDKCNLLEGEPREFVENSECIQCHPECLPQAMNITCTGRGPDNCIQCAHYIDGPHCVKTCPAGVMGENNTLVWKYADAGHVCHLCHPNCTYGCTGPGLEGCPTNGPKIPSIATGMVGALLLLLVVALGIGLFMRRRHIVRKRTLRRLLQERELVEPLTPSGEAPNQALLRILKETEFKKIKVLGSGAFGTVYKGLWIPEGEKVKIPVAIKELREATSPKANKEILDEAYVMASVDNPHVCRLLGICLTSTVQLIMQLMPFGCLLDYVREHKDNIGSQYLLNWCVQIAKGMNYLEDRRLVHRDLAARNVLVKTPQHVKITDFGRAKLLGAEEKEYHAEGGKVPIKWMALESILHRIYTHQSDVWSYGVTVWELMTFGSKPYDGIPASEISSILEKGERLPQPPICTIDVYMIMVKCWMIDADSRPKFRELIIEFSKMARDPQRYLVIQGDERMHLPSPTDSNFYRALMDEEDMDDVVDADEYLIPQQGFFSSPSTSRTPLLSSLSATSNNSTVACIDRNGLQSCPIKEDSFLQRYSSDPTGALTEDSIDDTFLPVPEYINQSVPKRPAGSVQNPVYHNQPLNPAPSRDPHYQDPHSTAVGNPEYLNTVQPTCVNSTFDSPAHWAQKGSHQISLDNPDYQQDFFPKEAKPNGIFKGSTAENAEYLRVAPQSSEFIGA
Chain of EGFR wt (P00533 25-1210): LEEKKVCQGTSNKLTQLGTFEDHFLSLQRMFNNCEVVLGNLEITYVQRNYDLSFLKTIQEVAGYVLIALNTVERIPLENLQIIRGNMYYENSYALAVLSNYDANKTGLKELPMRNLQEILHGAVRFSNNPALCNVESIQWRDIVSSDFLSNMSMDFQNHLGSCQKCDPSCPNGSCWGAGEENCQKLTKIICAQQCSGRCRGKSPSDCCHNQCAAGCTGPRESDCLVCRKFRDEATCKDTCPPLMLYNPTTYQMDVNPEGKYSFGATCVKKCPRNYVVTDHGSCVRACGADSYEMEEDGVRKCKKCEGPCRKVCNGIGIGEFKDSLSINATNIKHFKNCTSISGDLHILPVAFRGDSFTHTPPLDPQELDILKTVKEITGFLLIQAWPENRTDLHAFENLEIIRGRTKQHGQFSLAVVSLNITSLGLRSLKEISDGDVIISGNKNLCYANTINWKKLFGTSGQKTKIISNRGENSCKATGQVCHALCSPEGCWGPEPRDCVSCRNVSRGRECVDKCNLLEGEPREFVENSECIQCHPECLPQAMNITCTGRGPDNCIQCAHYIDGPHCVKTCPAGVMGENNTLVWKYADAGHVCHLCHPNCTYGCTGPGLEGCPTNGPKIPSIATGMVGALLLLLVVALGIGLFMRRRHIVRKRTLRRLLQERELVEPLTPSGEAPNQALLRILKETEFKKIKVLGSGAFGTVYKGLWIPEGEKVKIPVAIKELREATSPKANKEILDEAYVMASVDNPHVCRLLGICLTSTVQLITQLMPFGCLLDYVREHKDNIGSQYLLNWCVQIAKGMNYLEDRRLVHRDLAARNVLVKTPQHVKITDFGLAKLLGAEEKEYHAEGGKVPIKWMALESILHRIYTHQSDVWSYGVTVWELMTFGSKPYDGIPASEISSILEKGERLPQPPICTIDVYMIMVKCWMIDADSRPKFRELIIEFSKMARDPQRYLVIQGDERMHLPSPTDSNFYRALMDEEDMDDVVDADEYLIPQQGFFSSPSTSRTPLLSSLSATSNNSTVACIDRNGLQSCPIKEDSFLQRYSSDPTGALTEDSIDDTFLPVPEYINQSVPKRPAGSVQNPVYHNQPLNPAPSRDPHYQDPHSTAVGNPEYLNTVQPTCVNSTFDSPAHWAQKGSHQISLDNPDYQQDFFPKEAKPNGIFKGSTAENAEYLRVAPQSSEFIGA

For the compound `C=CC(=O)N1CCCc2ccc(-c3c(-c4ccc(OCCN5CCCC5)cc4)[nH]c4nccc(Cl)c34)cc21` [Example 90, 1-(7-(4-chloro-2-(4-(2-(pyrrolidin-1-yl)ethoxy)phenyl)-1H-pyrrolo[2,3-b]pyridin-3-yl)-3,4-dihydroquinolin-1(2H)-yl)prop-2-en-1-one], the pIC50 was 6.30 to 7.00 in assay [1]; 4.00 to 6.00 in assay [3]; at least 7.00 in assay [4]; at least 7.00 in assay [5]; at least 7.00 in assay [6]. For the same compound, the figures for the GI50 in assay [2] and in assay [7] were 1000 to 10000 nM and 500 to 1000 nM, respectively.

Take `C=CC(=O)Nc1cc(-c2c(-c3ccc(N4CCN(C)CC4)cc3)[nH]c3ncc(CC(=O)OC4COC4)cc23)ccc1C` [Example 197, oxetan-3-yl 2-(3-(3-acrylamido-4-methylphenyl)-2-(4-(4-methylpiperazin-1-yl)phenyl)-1H-pyrrolo[2,3-b]pyridin-5-yl)acetate]: the pIC50 was 6.00 to 6.30 in assay [1]; 4.00 to 6.00 in assay [3]; at least 7.00 in assay [4]; at least 7.00 in assay [5]; at least 7.00 in assay [6]. Further, the GI50 in assay [2] was in the range of 100 to 500 nM; in assay [7] it was 1000 to 10000 nM.

Turning to `C=CC(=O)N1CCCc2ccc(-c3c(-c4ccc(CN5CCN(C)CC5)nc4)[nH]c4nccc(Cl)c34)cc21` [Example 89, 1-(7-(4-chloro-2-(6-((4-methylpiperazin-1-yl)methyl)pyridin-3-yl)-1H-pyrrolo[2,3-b]pyridin-3-yl)-3,4-dihydroquinolin-1(2H)-yl)prop-2-en-1-one], the pIC50 was 6.30 to 7.00 in assay [1]; 6.00 to 6.30 in assay [3]; at least 7.00 in assay [4]; at least 7.00 in assay [5]; at least 7.00 in assay [6]. Besides, the GI50 in assay [2] and in assay [7] was 100 to 500 nM throughout.

For the compound `C=CC(=O)Nc1cc(-c2c(-c3ccc(N4CCOCC4)nc3)[nH]c3ncc(C(=O)OC(C)C)cc23)ccc1C` [Example 171, isopropyl 3-(3-acrylamido-4-methylphenyl)-2-(6-morpholinopyridin-3-yl)-1H-pyrrolo[2,3-b]pyridine-5-carboxylate], the pIC50 in assay [1] was 4.00 to 6.00; in assay [3], 4.00 to 6.00; in assay [4] it was 6.00 to 6.30; in assay [5], at least 7.00; in assay [6], 5.00 to 6.00. Further, the GI50 in assay [2] and in assay [7] was 1000 to 10000 nM each time.

With `C=CC(=O)Nc1cc(-c2c(-c3ccc(N4CCN(C)CC4)nc3)[nH]c3ncc(C(=O)OC(C)C)cc23)ccc1C` [Example 163, isopropyl 3-(3-acrylamido-4-methylphenyl)-2-(6-(4-methylpiperazin-1-yl)pyridin-3-yl)-1H-pyrrolo[2,3-b]pyridine-5-carboxylate], the pIC50 is 6.00 to 6.30 in assay [1]; 4.00 to 6.00 in assay [3]; at least 7.00 in assay [4]; at least 7.00 in assay [5]; at least 7.00 in assay [6]. The GI50 in assay [2] and in assay [7] was 500 to 1000 nM each time.

`C=CC(=O)N1CCOc2ccc(-c3c(-c4ccc(CN(C)C)cc4)[nH]c4nccc(Cl)c34)cc21` [Example 102, 1-(6-(4-chloro-2-(4-((dimethylamino)methyl)phenyl)-1H-pyrrolo[2,3-b]pyridin-3-yl)-2H-benzo[b][1,4]oxazin-4(3H)-yl)prop-2-en-1-one]: the pIC50 in assay [1] is 6.30 to 7.00; in assay [3], 4.00 to 6.00; in assay [4], at least 7.00; in assay [5] it was at least 7.00; in assay [6] it was at least 7.00. The GI50 in assay [2] and in assay [7] was 100 to 500 nM each time.

In the case of `C=CC(=O)N1CCCc2ccc(-c3c(-c4ccc(C5CCN(C)CC5)cc4)[nH]c4nccc(Cl)c34)cc21` [Example 87, 1-(7-(4-chloro-2-(4-(1-methylpiperidin-4-yl)phenyl)-1H-pyrrolo[2,3-b]pyridin-3-yl)-3,4-dihydroquinolin-1(2H)-yl)prop-2-en-1-one], the pIC50 in assay [1] was 6.30 to 7.00; in assay [3], 4.00 to 6.00; in assay [4], at least 7.00; in assay [5], at least 7.00; in assay [6] it was at least 7.00. Besides, the GI50 in assay [2] and in assay [7] was 500 to 1000 nM each time.

On to `C=CC(=O)Nc1cc(-c2c(-c3ccc(N4CCN(C)CC4)cc3)[nH]c3ncc(CC(=O)OC)cc23)ccc1C` [Example 195, methyl 2-(3-(3-acrylamido-4-methylphenyl)-2-(4-(4-methylpiperazin-1-yl)phenyl)-1H-pyrrolo[2,3-b]pyridin-5-yl)acetate], for which the pIC50 was 6.30 to 7.00 in assay [1]; 4.00 to 6.00 in assay [3]; at least 7.00 in assay [4]; at least 7.00 in assay [5]; at least 7.00 in assay [6]. Moreover, the GI50 in assay [2] and in assay [7] was 100 to 500 nM in each case.

For `C=CC(=O)Nc1cc(-c2c(-c3ccc(C4CCN(C)CC4)cc3)[nH]c3ncc(C(=O)OC(C)C)cc23)ccc1C` [Example 149, isoproyl 3-(3-acrylamido-4-methylphenyl)-2-(4-(1-methylpiperidin-4-yl)phenyl)-1H-pyrrolo[2,3-b]pyridine-5-carboxylate 2,2,2-trifluoroacetate], the pIC50 in assay [1] was 6.30 to 7.00; in assay [3], 4.00 to 6.00; in assay [4], at least 7.00; in assay [5] it was at least 7.00; in assay [6], at least 7.00. Further, the GI50 in assay [2] and in assay [7] was 100 to 500 nM throughout.

`C=CC(=O)Nc1cc(-c2c(-c3ccc(N4CCN(C)CC4)cc3)[nH]c3ncc(C(=O)NCCc4ccc(F)cc4)cc23)ccc1C` [Example 124, 3-(3-acrylamido-4-methylphenyl)-N-(4-fluorophenethyl)-2-(4-(4-methylpiperazin-1-yl)phenyl)-1H-pyrrolo[2,3-b]pyridine-5-carboxamide]: the negative-log IC50 (pIC50) is 6.00 to 6.30 in assay [1]; 6.00 to 6.30 in assay [3]; at least 7.00 in assay [4]; at least 7.00 in assay [5]; 6.30 to 7.00 in assay [6]. Further, the GI50 in assay [2] was in the range of 500 to 1000 nM; in assay [7], 100 to 500 nM.

`C=CC(=O)Nc1cc(-c2c(-c3ccc(N4CCN(C)CC4)cc3)[nH]c3ncc(C(=O)NCc4cccc(C(N)=O)c4)cc23)ccc1C` [Example 133, 3-(3-acrylamido-4-methylphenyl)-N-(3-carbamoylbenzyl)-2-(4-(4-methylpiperazin-1-yl)phenyl)-1H-pyrrolo[2,3-b]pyridine-5-carboxamide]: the pIC50 in assay [1] is below 5.00; in assay [3], below 5.00; in assay [4], 6.30 to 7.00; in assay [5], at least 7.00; in assay [6], 6.30 to 7.00. In addition, the GI50 in assay [2] and in assay [7] was above 10000 nM each time.

As for `C=CC(=O)N1CCc2ccc(-c3c(-c4ccc(N5CCN(C)CC5)cc4)[nH]c4ncc(C(=O)OC(C)C)cc34)cc21` [Example 192, isoproyl 3-(1-acryloylindolin-6-yl)-2-(4-(4-methylpiperazin-1-yl)phenyl)-1H-pyrrolo[2,3-b]pyridine-5-carboxylate 2,2,2-trifluoroacetate], the pIC50 is 4.00 to 6.00 in assay [1]; 4.00 to 6.00 in assay [3]; at least 7.00 in assay [4]; at least 7.00 in assay [5]; at least 7.00 in assay [6]. Moreover, the GI50 in assay [2] is 500 to 1000 nM; in assay [7], 100 to 500 nM.

Broadly, the pIC50 is the IC50 on a negative log10 scale, so that one unit is a factor of ten.

(Values after patent US20220370440A1 (Lead Discovery Center GmbH, priority 2018, published 2022).)
